Measurements published in patent US20240043389A1, “COMPOUNDS AND METHODS FOR INHIBITION OF BAX-MEDIATED CELL DEATH” (Albert Einstein College of Medicine, priority 2020, published 2024).
One block for each compound: values may come before it.

How the values were obtained:
[1] = molecular target: T1, BAX (Homo sapiens, UniProt Q07812); test: Competitive fluorescence polarization binding assay (FITC-BIM-SAHB displacement from BAX)
T1 construct: Human full-length (1-192) wild-type BAX (Q07812); made in house; host or cells: E. coli BL21 (DE3) CodonPlus (DE3)-RIPL
T1 sequence (Q07812 whole entry): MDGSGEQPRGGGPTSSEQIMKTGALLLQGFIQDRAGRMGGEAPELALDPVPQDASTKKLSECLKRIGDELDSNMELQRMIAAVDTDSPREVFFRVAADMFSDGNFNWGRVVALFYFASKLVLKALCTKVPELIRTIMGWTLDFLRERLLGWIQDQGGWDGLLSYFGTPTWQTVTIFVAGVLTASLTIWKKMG
Procedure: Fluorescence polarization assays (FPA) were performed as previously described (Reyna, D. E., et al. Cancer Cell 32 490-505 (2017)). Direct binding isotherms of BIM-SAHB were measured by incubated FITC-BIM-SAHB (25 nM) with serial dilutions of full-length BAX alone or in the presence of 0.5 or 1 μM EO. Competition binding assays were performed by titrating EO into BAX (150 nM) and FITC-BIM-SAHB (25 nM). Measurements were taken at 10-minute intervals over 60 minutes on a TECAN F200 PRO microplate reader. Reported curves represent a 10-minute time point. KD values and IC50 were determined using GraphPad Prism nonlinear fit four-parameter agonist or antagonist versus response with restraints for 100% and 0% bound calculated by the mP of saturated BAX+FITC-BIM-SAHB and FITC-BIM-SAHB alone.

[2] = molecular target: T1, BAX; test: Liposomal permeabilization (release) assay; format: biochemical; conditions: compared with EO
Procedure: (§1) Liposomes were formed by extrusion of the suspension using Avanti Mini-Extruder (cat #610000) with polycarbonate membranes of 0.1 μm pore size (Avanti Polar Lipids). ANTS/DPX encapsulated liposomes were purified from non-encapsulated ANTS/DPX by gel filtration of a 10 mL CL2B-Sepharose (GE Healthcare Life Sciences) gravity flow column. […] Reactions were initiated by the addition of 10 μL of the encapsulated ANTS/DPX liposome stock. ANTS/DPX release was quantified based on the increase in fluorescence intensity that occurs when the ANTS fluorophore is separated from the DPX quencher upon release from the liposomes into solution. Fluorescence (λex=355 nm and λem=520 nm) was measured at 1-minute intervals at room temperature (22-25° C.) indicated using a Tecan Infinite M1000 plate reader. In the case of heat activation, reactions were setup as described in the absence of tBID or BIM, and experiments were recorded at 42° C. The percentage release of ANTS/DPX at any given time point was calculated as percentage release=((F−F0)/(F100−F0))(100), where F0 and F100 are baseline and maximal fluorescence, respectively. Triton X-100 (1%) was used to determine the maximum amount of liposomal release per assay and was set to 100%.

[3] = molecular target: T2, 15N-labeled BAX (Homo sapiens, UniProt Q07812); test: 1H-15N HSQC NMR chemical shift perturbation; format: binding
T2 construct: Human full-length (1-192) wild-type BAX (Q07812); made in house; host or cells: E. coli BL21 (DE3) CodonPlus (DE3)-RIPL
T2 sequence (Q07812 whole entry): as above
Procedure: The uniformly ^15N-labeled protein samples were prepared by growing the bacteria in the minimal medium, as previously described (Uchime, O., et al. J Biol Chem 291, 89-102, (2016)). Unlabeled and ^15N-labeled protein samples were prepared in 50 mM potassium phosphate, 50 mM NaCl solution at pH 6.0 in 10% D20. All experiments were performed using an independent sample for each experimental measurement as a 400 μL sample in a 5-mm Shigemi; all samples were DMSO matched with 2% d6-DMSO. Correlation ^1H-^15N-HSQC spectra were recorded on ^15N-labeled BAX at 50 μM in the presence and absence of 100 μM of EO. NMR spectra were acquired at 25° C. on a Bruker 600 MHz spectrometer equipped with a cryoprobe, processed using TopSpin and analyzed using NMRView. […] The weighted average chemical shift perturbation (CSP) was calculated as √(L1δ^1H)^2+(L1δ^15N/5)^2)/2 in p.p.m. […] The significance threshold for backbone amide chemical shift changes was calculated based on the average chemical shift across all residues plus 0.5 or 1 s.d. Solvent-accessible surface area was probed by the addition of 10 mM hy-TEMPO (sigma) to 50 μM ^15N-labeled BAX with and without 100 μM EO measured using standard ^1H-^15N-HSQC with an increased recycle delay of 2 sec. PRE was calculated as the ratio of peak intensities of BAX in the presence of hy-TEMPO to BAX without hy-TEMPO (% intensity). […]

[4] = tested on: platelets; conditions: platelets isolated from treated patients; cited from earlier work
[5] = tested on: platelets; test: Navitoclax-induced thrombocytopenia, platelet counts; format: in vivo, C57BL/6J mice; conditions: ABT-263 25 mg/kg single dose, oral gavage, within 24 hr
[6] = tested on: BAX−/−MEFs; test: STS-induced caspase 3/7 assay in BAX-/- MEFs; format: cell-based, mouse; conditions: MEFs expressing only BAK, 3 μM STS, 6 hr
Excerpt: FIGS. 9a, 9b, 9c, 9d, 9e, and 9f are a set of diagrams showing that eltrombopag inhibits BAX translocation and BAX-mediated apoptosis in cells. […] BAX translocation is based on antibody-based detection of BAX and mitochondrial protein TOMM20. Representative confocal micrographs from three independent biological experiments. Scale bar, […]. […] Data represent ±SEM of three independent biological replicates. Two-sided t test, ****P<0.0001; ***P<0.001; **P<0.01; *P<0.05; ns, P>0.05. […] Actin and VDAC are loading controls for cytosolic and mitochondrial fractions, respectively. FIGS. 9d and 9e show a caspase 3/7 assay of BAK−/− mouse embryonic fibroblasts (MEFs) (FIG. 9d) and BAX−/−MEFs (FIG. 9e) in response to 3 μM STS and the presence or absence of various doses of EO for 6 hr. Data represent mean of n=3±SEM and are representative of three independent experiments. Two-sided t-test, **** P<0.0001; ***P<0.001;**P<0.01; *P<0.05; ns, P>0.05. […] Data represent mean of n=3±SEM.

[7] = molecular target: T3, BAX R145E (Homo sapiens, UniProt Q07812, R145E); test: Liposomal release assay, BAX R145E mutant; format: biochemical; conditions: 250 nM BAX, 5 nM tBID
T3 construct: Human full-length (1-192) wild-type BAX (Q07812); made in house; host or cells: E. coli BL21 (DE3) CodonPlus (DE3)-RIPL
T3 sequence (Q07812 whole entry R145E): as the sequence (Q07812 whole entry) above, with R145E counted along it
Procedure: as §1

[8] = molecular target: T4, BAX R134E R145E (Homo sapiens, UniProt Q07812, R134E/R145E); test: Liposomal release assay, BAX R134E R145E mutant; format: biochemical; conditions: 250 nM BAX, 5 nM tBID; read-out: IC50, inhibition of liposomal release
T4 construct: Human full-length (1-192) wild-type BAX (Q07812); made in house; host or cells: E. coli BL21 (DE3) CodonPlus (DE3)-RIPL
T4 sequence (Q07812 whole entry R134E/R145E): as the sequence (Q07812 whole entry) above, with R134E, R145E counted along it
Procedure: as §1

Compound: romiplostim
resistance of patient platelets to ABT-263 (Navitoclax) induced cell death [4]: not observed

Compound: CC1(C)CCC(c2ccc(Cl)cc2)=C(CN2CCN(c3ccc(C(=O)NS(=O)(=O)c4ccc(N[C@H](CCN5CCOCC5)CSc5ccccc5)c(S(=O)(=O)C(F)(F)F)c4)cc3)CC2)C1 [navitoclax]
platelet loss [5]: significant platelet loss

Second part, led by results:

competitive binding to the BAX trigger site (FP) ([1]; FIG. 7a): competitive binding
Compound: COc1c(NN=C2C(=O)N(c3cccc([N+](=O)[O-])c3)N=C2C)cccc1-c1cccc(C(=O)O)c1 [EO-2, 2′-methoxy-3′-(2-(3-methyl-1-(3-nitrophenyl)-5-oxo-1,5-dihydro-4H-pyrazol-4-ylidene)hydrazineyl)-[1,1′-biphenyl]-3-carboxylic acid]

inhibition of BAX in liposomal release assays [2]: significantly diminished inhibition | chemical shift perturbations of 15N-labeled BAX [3]: minimal CSPs | IC50 ([1]; BAX 150 nM, FITC-BIM-SAHB 25 nM, read-out: IC50, competition of FITC-BIM-SAHB by FPA): > 5 µM
Compound: COC(=O)c1cccc(-c2cccc(NN=C3C(=O)N(c4ccc(C)c(C)c4)N=C3C)c2O)c1 [EO-Methyl Ester, eltrombopag methyl ester]

IC50 relative to BAX WT [7]: more than double that of BAX WT | IC50 [8]: > 10 µM
Compound: CC1=NN(c2ccc(C)c(C)c2)C(=O)/C1=N\Nc1cccc(-c2cccc(C(=O)O)c2)c1O [EO, eltrombopag]
STS-induced apoptosis mediated by caspase 3/7 activity [6]: no effect
